This note sets out measurements from patent US8916204B2, “SPARC and methods of use thereof” (Abraxis BioScience, LLC, priority 2004, dated 2014).

This test concerns endothelial monolayers (gp60-mediated caveolar transcytosis). Description: inhibition of transport of paclitaxel from ABX across endothelial monolayers. In kind it is in vitro ADME, human. An excerpt:
Transport was dependent on albumin.

In the case of `CCN1C(=O)C=CC1=O` [NEM], the “effect on transport of paclitaxel from ABX” value is “inhibited”.
The entry for […]-methyl cyclodextrin [BMC] is “inhibited”.
